# Source: paper PMC10733197, “Utilization of Rosuvastatin and Endogenous Biomarkers in Evaluating the Impact of Ritlecitinib on BCRP, OATP1B1, and OAT3 Transporter Activity” (Pharmaceutical Research, 2023)
# Several values for one entry are separate records, joined by “and”; a condition that tells them apart may be missing. Equal entries are not always repeated. Where two headings read alike, the source gives them in different places.
# Experiments:
# OATP1B1 [1] = target: T1, OATP1B1 (Homo sapiens, UniProt Q9Y6L6); conditions: CP-I 0.1 µM; 30-minute pre-incubation; HEK293; published data; ref 1 (Rodrigues AD 2023); cited from earlier work
# T1 construct: expressed in transfected cells; host or cells: HEK293
# T1 sequence (Q9Y6L6 1-691): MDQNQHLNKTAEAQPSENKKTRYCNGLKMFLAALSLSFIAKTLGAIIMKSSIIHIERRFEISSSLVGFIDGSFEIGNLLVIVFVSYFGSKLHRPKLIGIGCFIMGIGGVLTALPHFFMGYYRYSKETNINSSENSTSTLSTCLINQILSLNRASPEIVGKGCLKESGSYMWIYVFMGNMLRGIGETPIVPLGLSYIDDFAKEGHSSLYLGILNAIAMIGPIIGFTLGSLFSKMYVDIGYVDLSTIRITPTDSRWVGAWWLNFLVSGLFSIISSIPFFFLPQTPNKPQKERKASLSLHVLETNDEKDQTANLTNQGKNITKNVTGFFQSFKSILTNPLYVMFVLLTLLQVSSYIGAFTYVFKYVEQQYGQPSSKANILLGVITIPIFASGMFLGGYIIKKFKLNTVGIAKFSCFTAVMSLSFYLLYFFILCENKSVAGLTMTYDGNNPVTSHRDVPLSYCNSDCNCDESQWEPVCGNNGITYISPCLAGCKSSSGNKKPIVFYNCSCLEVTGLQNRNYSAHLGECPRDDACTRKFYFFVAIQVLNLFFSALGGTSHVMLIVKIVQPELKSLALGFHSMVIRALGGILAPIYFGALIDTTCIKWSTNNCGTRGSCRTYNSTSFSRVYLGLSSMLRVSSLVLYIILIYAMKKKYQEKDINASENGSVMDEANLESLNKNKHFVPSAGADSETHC
# OATP1B3 = target: T2, OATP1B3 (Homo sapiens, UniProt Q9NPD5); conditions: CP-I 0.1 µM; 30-minute pre-incubation; HEK293; published data; ref 1 (Rodrigues AD 2023); cited from earlier work
# T2 construct: expressed in transfected cells; host or cells: HEK293
# T2 sequence (Q9NPD5 1-702): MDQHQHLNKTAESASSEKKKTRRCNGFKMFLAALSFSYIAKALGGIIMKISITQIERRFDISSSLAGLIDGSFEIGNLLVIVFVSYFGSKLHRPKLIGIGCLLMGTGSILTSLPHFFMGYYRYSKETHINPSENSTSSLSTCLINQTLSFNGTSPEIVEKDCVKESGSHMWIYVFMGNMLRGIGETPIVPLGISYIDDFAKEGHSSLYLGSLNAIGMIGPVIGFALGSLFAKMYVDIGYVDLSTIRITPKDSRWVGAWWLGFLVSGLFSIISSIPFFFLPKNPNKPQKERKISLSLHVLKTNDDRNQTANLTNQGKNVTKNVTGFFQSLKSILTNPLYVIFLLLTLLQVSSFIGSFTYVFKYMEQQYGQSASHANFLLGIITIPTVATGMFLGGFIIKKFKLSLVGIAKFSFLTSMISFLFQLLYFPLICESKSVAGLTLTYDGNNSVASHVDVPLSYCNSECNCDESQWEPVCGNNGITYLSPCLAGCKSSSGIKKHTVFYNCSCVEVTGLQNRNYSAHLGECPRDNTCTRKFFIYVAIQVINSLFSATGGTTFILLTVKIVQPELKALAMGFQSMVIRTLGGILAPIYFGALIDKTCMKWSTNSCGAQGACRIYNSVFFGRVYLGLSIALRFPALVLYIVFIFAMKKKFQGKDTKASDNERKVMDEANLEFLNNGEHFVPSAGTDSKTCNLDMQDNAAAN
# [2] = cited from earlier work; for Imax,inlet,u: ka = 0.1 min^-1 assumed, ref 1 (Rodrigues AD 2023)
# OATP1B1 [3] = conditions: cited from earlier work; for ∆CP-I Observed: AUC ratio or single CP-I concentration ratio ± perpetrator, ref 1 (Rodrigues AD 2023)
# OAT1/3 [4] = assay: Plasma PDA as endogenous biomarker of OAT1/3 in clinical DDI studies; assay type: in vivo, human; conditions: for AUC24 / Cmax: geometric mean (%CV)
# Experimental: (§1) Blood and urine samples were collected at prespecified timepoints. Rosuvastatin plasma samples (~ 6 mL) were collected predose and at 0.5, 1, 2, 3, 4, 5, 6, 8, 10, 12, 16, 24, 36, 48, and 72 h postdose. CP-I and PDA plasma samples (~ 6 mL) were collected predose and at 0.5, 1, 2, 3, 4, 5, 6, 8, 10, 12, 16, and 24 h post rosuvastatin dosing. Rosuvastatin urine samples were collected at predose, 0–6 h, 6–12, 12–24, 24–48, and 48–72 h postdose. Each participant emptied their bladder just prior to dosing.
# Quantification of PDA was conducted by mass spectrometry according to Towner et al.. […] Mass spectrometry detection of the analytes were achieved using a SCIEX API QTrap 5500 mass spectrometry and a Turbo V electrospray ionization source in negative ion mode. Plasma samples were prepared by protein precipitation by spiking 50 μL of sample with 200 μL of 300 ng/mL 4-aminosalicylic acid internal standard. After vortexing/centrifugation, 200 μL of supernatant was transferred and 1 μL injections were analyzed. A 1/x^2 weighted linear regression was used to quantitate sample concentrations.
# (§2) The PK parameters for rosuvastatin, CP-I and PDA were calculated for each participant and each treatment using Pfizer’s internally validated electronic noncompartmental analysis software (eNCA) version 2.4.4. Samples below the lower limit of quantitation were set to zero for the PK analysis. Actual sample collection times were used for the PK analysis.
# (§3) Natural log transformed area under the plasma concentration-time profile from time 0 extrapolated to infinity (AUCinf), maximum plasma concentration (Cmax), and apparent renal clearance (CLr) were analyzed using a mixed effect model with treatment as a fixed effect and participant as a random effect (SAS version 9.4; SAS Institute, Cary, NC, USA). Estimates of the adjusted mean differences (Test-Reference) and corresponding 90% CIs were obtained from the model. The adjusted mean difference and 90% CIs for the differences were exponentiated to provide estimates of the ratio of adjusted geometric means (Test/Reference) and 90% CIs for the ratios. Rosuvastatin alone was the reference treatment, while the rosuvastatin coadministered with ritlecitinib was the Test treatment.
# OAT1/3 [5] = conditions: plasma PDA in the presence of probenecid; cited from earlier work
# OCT1 = test system: OCT1; parameters: method as in PMID 36807251; conditions: cited from earlier work
# OATP1B1 [6] = assay: Plasma CP-I as endogenous biomarker of OATP1B1 in clinical DDI studies; assay type: in vivo, human; parameters: AUC24 / Cmax: unit not given beside the values; conditions: for AUC24 / Cmax: geometric mean (%CV)
# Experimental: as §1
# Quantification of CP-I was conducted by mass spectrometry according to King-Ahmad et al.. Plasma samples were spiked with stable label internal standard (^15N4-coproporphyrin I). CP-I was isolated through supported liquid extraction. The eluate was evaporated under a nitrogen stream at approximately 45 °C, and the remaining residue was reconstituted with 125 μL of water/acetonitrile/formic acid (750:250: 1, v/v/v). The final extract was analyzed via UPLC® with column switching and MS/MS detection using positive ion electrospray. A linear, 1/x^2 weighted, least-squares regression algorithm was used to quantitate sample concentrations.
# as §2, §3
# [7] = rosuvastatin 10 mg + ritlecitinib 200 mg QD
# [8] = with vs without ritlecitinib 200 mg QD
molecule,measurement,setting,value
COc1ccc([C@@H]2Sc3ccccc3N(CCN(C)C)C(=O)[C@@H]2OC(C)=O)cc1 [Diltiazem],IC50,OATP1B1 [1],100000 nM
same,IC50,OATP1B3,175000 nM
C[C@H]1CN(C2COC2)CCN1c1ccc(Nc2cc(-c3ccnc(N4CCn5c(cc6c5CC(C)(C)C6)C4=O)c3CO)cn(C)c2=O)nc1 [Fenebrutinib],IC50,OATP1B1 [1],6100 nM
same,IC50,OATP1B3,1200 nM
same,"Imax,inlet,u",[2]; inhibitor dose 200 mg,4.2 µM
same,∆CP-I Observed,OATP1B1 [3]; inhibitor dose 200 mg,1
CC/C(=C(/c1ccc(/C=C/C(=O)O)cc1)c1ccc2[nH]ncc2c1)c1ccc(F)cc1Cl [GDC-0810],IC50,OATP1B1 [1],200 nM
same,IC50,OATP1B3,900 nM
same,"Imax,inlet,u",[2]; inhibitor dose 600 mg,0.009 µM
same,∆CP-I Observed,OATP1B1 [3]; inhibitor dose 600 mg,1.5
CCC(C)n1ncn(-c2ccc(N3CCN(c4ccc(OCC5COC(Cn6cncn6)(c6ccc(Cl)cc6Cl)O5)cc4)CC3)cc2)c1=O (stereo not shown) [Itraconazole],IC50,OATP1B1 [1],20000 nM
same,IC50,OATP1B3,20000 nM
same,"Imax,inlet,u",[2]; inhibitor dose 200 mg,0.3 µM
same,∆CP-I Observed,OATP1B1 [3]; inhibitor dose 200 mg,0.9
"Cc1ncc(CO)c(C(=O)O)c1O [PDA, pyridoxic acid]",AUC24,OAT1/3 [4]; [7],69.47 (33)
same,Cmax,OAT1/3 [4]; [7],3.765 (28)
same,AUC24,OAT1/3 [4]; rosuvastatin 10 mg alone,67.34 (30)
same,Cmax,OAT1/3 [4]; rosuvastatin 10 mg alone,3.664 (29)
same,AUC24 % Ratio (Test/Reference) of Adjusted Geometric Means (90% CI),OAT1/3 [4]; [8],"103.16 (87.65, 121.42) %"
same,Cmax % Ratio (Test/Reference) of Adjusted Geometric Means (90% CI),OAT1/3 [4]; [8],"102.76 (87.58, 120.58) %"
same,increase in plasma AUC,OAT1/3 [5],3.1 fold
C[C@H]1CCN1c1nc(N2C[C@@H]3[C@@H](CC(=O)O)[C@@H]3C2)cc(C(F)(F)F)n1 [PF-06835919],IC50,OATP1B1 [1],4300 nM
same,IC50,OATP1B3,5600 nM
same,"Imax,inlet,u",[2]; inhibitor dose 50 mg,1.5 µM
same,"Imax,inlet,u",[2]; inhibitor dose 100 mg,2.5 µM
same,"Imax,inlet,u",[2]; inhibitor dose 280 mg,8.2 µM
same,"Imax,inlet,u",[2]; inhibitor dose 400 mg,10.3 µM
same,"Imax,inlet,u",[2]; inhibitor dose 600 mg,15.3 µM
same,∆CP-I Observed,OATP1B1 [3]; inhibitor dose 50 mg,1.1
same,∆CP-I Observed,OATP1B1 [3]; inhibitor dose 100 mg,1.2
same,∆CP-I Observed,OATP1B1 [3]; inhibitor dose 280 mg,1.5
same,∆CP-I Observed,OATP1B1 [3]; inhibitor dose 400 mg,1.3
same,∆CP-I Observed,OATP1B1 [3]; inhibitor dose 600 mg,1.8
CC(=O)O[C@H]1C(=O)[C@@]2(C)[C@H]([C@H](OC(=O)c3ccccc3)[C@]3(O)C[C@H](OC(=O)[C@H](O)[C@@H](NC(=O)c4ccccc4)c4ccccc4)C(C)=C1C3(C)C)[C@]1(OC(C)=O)CO[C@@H]1C[C@@H]2O [Paclitaxel],IC50,OATP1B3,700 nM
same,∆CP-I Observed,OATP1B1 [3]; inhibitor dose 200 mg,2.8
O=C(O)[C@H]1C2CCC(CC2)[C@@H]1Nc1nc(-c2c[nH]c3ncc(F)cc23)ncc1F [Pimodivir],IC50,OATP1B1 [1],500 nM
same,IC50,OATP1B3,1100 nM
same,"Imax,inlet,u",[2]; inhibitor dose 600 mg,0.4 µM
same,∆CP-I Observed,OATP1B1 [3]; inhibitor dose 600 mg,1.4
CCCN(CCC)S(=O)(=O)c1ccc(C(=O)O)cc1 [Probenecid],IC50,OATP1B3,118000 nM
same,"Cmax,u",[2]; inhibitor dose 1000 mg,22 µM
same,"Imax,inlet,u","[2]; inhibitor dose 1,000 mg",56.6 µM
same,∆CP-I Observed,"OATP1B1 [3]; inhibitor dose 1,000 mg",1.4
CO[C@H]1/C=C/O[C@@]2(C)Oc3c(C)c(O)c4c(O)c(c(/C=N/N5CCN(C)CC5)c(O)c4c3C2=O)NC(=O)/C(C)=C\C=C\[C@H](C)[C@H](O)[C@@H](C)[C@@H](O)[C@@H](C)[C@H](OC(C)=O)[C@@H]1C [Rifampicin],IC50,OATP1B3,300 nM
same,"Imax,inlet,u",[2]; inhibitor dose 150 mg,3 µM
same,"Imax,inlet,u",[2]; inhibitor dose 300 mg,5.9 µM
same,"Imax,inlet,u",[2]; inhibitor dose 600 mg,11.9 µM
same,∆CP-I Observed,OATP1B1 [3]; inhibitor dose 150 mg,1.5
same,∆CP-I Observed,OATP1B1 [3]; inhibitor dose 300 mg,2.4 and 2.3
same,∆CP-I Observed,OATP1B1 [3]; inhibitor dose 600 mg,3.5 and 3.7 and 4 and 5.6
COc1ccc2c(O[C@@H]3C[C@H]4C(=O)N[C@]5(C(=O)NS(=O)(=O)C6CC6)C[C@H]5/C=C\CCCCN(C)C(=O)[C@@H]4C3)cc(-c3nc(C(C)C)cs3)nc2c1C [Simeprevir],IC50,OATP1B1 [1],1000 nM
same,IC50,OATP1B3,500 nM
same,"Imax,inlet,u",[2]; inhibitor dose 150 mg,0.002 µM
same,∆CP-I Observed,OATP1B1 [3]; inhibitor dose 150 mg,1.4
CNS(=O)(=O)Cc1ccc2[nH]cc(CCN(C)C)c2c1 [sumatriptan],increase in AUCinf,"OCT1; sumatriptan with ritlecitinib coadministration, due to OCT1 inhibition",30%
same,decrease in Cmax,OCT1; sumatriptan with ritlecitinib coadministration,13%
same,exposure increase,"OCT1; sumatriptan, liver OCT1 inhibition by ritlecitinib and M2",up to 50%
coproporphyrin I [CP-I],AUC24,OATP1B1 [6]; [7],8729 (21)
same,Cmax,OATP1B1 [6]; [7],418.8 (19)
same,AUC24,OATP1B1 [6]; rosuvastatin 10 mg alone,8915 (21)
same,Cmax,OATP1B1 [6]; rosuvastatin 10 mg alone,427.1 (22)
same,AUC24 % Ratio (Test/Reference) of Adjusted Geometric Means (90% CI),OATP1B1 [6]; [8],"97.91 (92.24, 103.94) %"
same,Cmax % Ratio (Test/Reference) of Adjusted Geometric Means (90% CI),OATP1B1 [6]; [8],"98.06 (93.13, 103.26) %"
same,increase in exposure (AUC24),OATP1B1 [3]; plasma CP-I with coadministration of rifampicin vs rosuvastatin alone,4.0 fold
